Our source for the TGI and GI50 values is PubChem BioAssay (NCI).

Where “and” joins values, the source holds several entries; their conditions need not be identical. Equal entries are not always repeated.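 A five-concentration, 48-hour dose response in 96-well plates underlies each endpoint, interpolated linearly between surrounding concentrations. GI50 is the concentration that inhibits growth by half. At the TGI there is no net growth.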 A value given as a limit tells only on which side of the number the result lay.

Assay in all cases: NCI tumour cell line growth inhibition, 48 h
Assay [1] relates to MDA-N.
In assay [2] the test system is DMS 114 small cell lung.
For assay [3], the system named is HOP-18 NSCLC.
In assay [4] the test system is KM20L2 colon.
In assay [5] the test system is M19-MEL melanoma.
In assay [6] the test system is RXF-631 renal.
Assay [7] relates to SNB-78 CNS.
Assay [8] deals with XF 498 CNS.
Assay [9] concerns LXFL 529 NSCLC.
The subject of assay [10] is P388 leukemia.
Assay [11] has as its system P388/ADR leukemia.
Assay [12] relates to SN12K1 renal.

`O=c1oc2c(Br)c(O)c(Br)cc2c2ccccc12` came in with a TGI in assay [1] greater than 100 µM.
Take `O=C1C(CN(Cc2ccccc2)Cc2ccccc2)CCCC1CN(Cc1ccccc1)Cc1ccccc1` (stereo unspecified): the TGI was 10.3 µM and > 100 µM in assay [2]; 11.8 µM and > 100 µM in assay [3]; 35.6 µM and > 100 µM in [4]; 18.7 µM and > 100 µM in assay [5]; greater than 100 µM in assay [1]; greater than 100 µM in assay [6]. For the same compound, the values for the TGI in assay [7] and in assay [8] were greater than 100 µM and 28.4 µM, respectively. In addition, the GI50 in assay [3] was 5.67 µM and 48.5 µM; in assay [4], 17.6 µM and > 100 µM; in [7] it was 28.1 µM and > 100 µM.
`O=C(O)c1ccc([N+](=O)[O-])c(P(=O)(O)O)c1`: in assay [1], the TGI is greater than 100 µM.
For `COC(=O)C(=C\Sc1ccccc1)/C=C/C(=O)OC(C)(C)C`, the TGI in assay [2] came to 25.8 µM; in assay [3], 30 µM; in assay [4], 31.1 µM; in [9], 13.5 µM; in assay [5], 23.9 µM; in assay [7], 31.9 µM. For the same compound, the TGI in assay [8] came out at 28.3 µM.
For the compound `O=S1Cc2ccccc2CS1` (stereo unspecified), the TGI in assay [3] was greater than 100 µM; in assay [4] it was greater than 100 µM; in assay [9] it was 28.7 µM; in assay [5], 33.7 µM; in assay [6], greater than 100 µM; in [7], 36.7 µM. For the same compound, the TGI in assay [8] is 32.6 µM.
For the compound `Cc1ccc(/C=C/C(=O)c2sc(C(N)=S)nc2C)cc1`, the TGI in [3], in [4], in assay [5] and in assay [7] was greater than 100 µM in each case.
On to `Cc1cc(=O)[nH]c(CNC(=O)c2cccc3ccccc23)n1`, for which the TGI in assay [4], in [9], in assay [5], in assay [7] and in assay [8] was greater than 100 µM in each case.
As to `COc1ccccc1/C=C1\CCC(CN(C)C)C1=O` (stereo unspecified), the TGI in assay [2] was 7.58 µM; in assay [3], greater than 53.1 µM; in assay [4], 16.4 µM; in assay [5], 7.46 µM; in assay [1], 26 µM; in [10], 2.83 µM. For the same compound, the TGI came out at 2.75 µM in assay [11], 4.4 µM in assay [12], 29.2 µM in [7] and 32.6 µM in assay [8].
As for `CC(/C=C/C=C/C=C/C=C/C=C/C(O)=C1/C(=O)C(CCC(=O)O)N(C)C1=O)=C\C(C)C(OC1CC(O)C(O)C(C)O1)C(C)C` (stereo unspecified), the TGI in [1] stood at 12.7 µM.
On to `COC(=O)C1C(=O)O[C@@H](c2ccc(OC)cc2)C1C(=O)OC` (stereo partly specified), for which the TGI in assay [2], in assay [3], in assay [4], in assay [9], in assay [5] and in assay [8] was greater than 100 µM throughout.
As to `CC(C)Cc1ccc(C(C)/C=C2\CCC(CN3CCOCC3)C2=O)cc1` (stereo unspecified), the TGI came out at 42.4 µM in [2]; 19.2 µM in [3]; 31.5 µM in assay [4]; 4.09 µM in [9]; 28.8 µM in assay [5]; 24.7 µM in assay [1]. In addition, the TGI is 41.2 µM in assay [6], greater than 72.8 µM in assay [7] and 30 µM in assay [8].
As to `CC12Oc3ccc4ccccc4c3C1c1c(ccc3ccccc13)O2` (stereo unspecified), the TGI in [2], in assay [4], in assay [9], in assay [5], in assay [7] and in [8] was greater than 100 µM each time.
In the case of `Cn1c(O)c(C=N)c(=O)n(C)c1=O`, the TGI in assay [2], in assay [3], in assay [4], in assay [5], in [7] and in assay [8] was greater than 100 µM each time.
As to `CC(=O)N(/N=C\c1ccc([N+](=O)[O-])cc1)c1ccccc1`, the TGI in assay [2], in [3], in assay [4], in [5], in assay [6] and in assay [7] was greater than 100 µM each time. In assay [8], this compound yielded a TGI greater than 100 µM.
Regarding `CC1C(=O)CCC1C(Sc1ccccc1)(Sc1ccccc1)Sc1ccccc1` (stereo unspecified), the TGI in assay [2] was 49.6 µM; in assay [9] it was 77.9 µM; in assay [5], greater than 100 µM; in assay [6], greater than 100 µM; in assay [7], greater than 100 µM; in assay [8], 80.9 µM.
For `COC1OC(COCc2ccc(Cl)cc2)C(OCc2ccc(Cl)cc2)C1O` (stereo unspecified), the TGI in [2] is 32.8 µM; in assay [3], 25.7 µM; in assay [4] it was 31.9 µM; in assay [9], 43.3 µM; in [5] it was 35.9 µM; in assay [6], 34.6 µM. The compound also displayed a TGI in assay [8] of 16 µM.
As to `O=[n+]1cnn([O-])c2ccccc21`, in [1], the TGI came to 44.2 µM.
Same read-out and setting: the figure for `O=C1C(=O)c2ccccc2C=C1[N+](=O)[O-]` is 39.2 µM.
Take `CCCCCCCCCCCCCCCCc1c(C(=O)OC)[nH]c(=S)[nH]c1=O`: the TGI in [3], in [4], in [9], in assay [5], in assay [6] and in [7] was greater than 50 µM each time. The same compound registered a TGI in assay [8] greater than 50 µM.
Turning to `CCCCCCCCC(=O)CCCCCCCCC(=O)O`, the TGI in [2] is 64.4 µM; in assay [3], 49.4 µM; in assay [4] it was 67.8 µM; in assay [9] it was 67.5 µM; in assay [5], greater than 100 µM; in assay [6], 44.1 µM. Also, the TGI in assay [7] and in assay [8] was greater than 100 µM throughout.
Take `CC1=C(C)C(=O)c2c(cc3c4ccccc4ccn23)C1=O`: the TGI in assay [2], in assay [3], in assay [4], in assay [5] and in assay [8] was greater than 100 µM in each case.
`Nc1ccn(C2OC(CO[P+](=O)OC3C(CO[P+](=O)OC4C(CO[P+](=O)OC5C(CO[P+](=O)OC6C(CO[P+](=O)OC7C(CO[P+](=O)OC8C(CO[P+](=O)OC9C(CO[P+](=O)OC%10C(CO[P+](=O)OC%11C(CO)OC(n%12ccc(N)nc%12=O)C%11(F)F)OC(n%11ccc(N)nc%11=O)C%10(F)F)OC(n%10ccc(N)nc%10=O)C9(F)F)OC(n9ccc(N)nc9=O)C8(F)F)OC(n8ccc(N)nc8=O)C7(F)F)OC(n7ccc(N)nc7=O)C6(F)F)OC(n6ccc(N)nc6=O)C5(F)F)OC(n5ccc(N)nc5=O)C4(F)F)OC(n4ccc(N)nc4=O)C3(F)F)C(O)C2(F)F)c(=O)n1` (stereo unspecified) returned a TGI in assay [1] greater than 100 µM.
For `CC(=O)c1cc2c3c(c1)c1cc4c(cc1c(=O)n3CC2)OCO4`, the TGI in assay [2] was greater than 100 µM; in [3], 76.6 µM; in assay [4], greater than 100 µM; in assay [9], greater than 100 µM; in [5], greater than 100 µM; in assay [6] it was greater than 100 µM. For the same compound, the TGI in assay [7] and in assay [8] was greater than 100 µM each time.
`N#CC(NC12CC3CC(CC(C3)C1)C2)c1ccccc1` (stereo unspecified) yielded a TGI in [1] greater than 100 µM.
On the same count and under the same terms, for `CCOC(=O)CC(=O)N(c1ccc(OC)cc1)C(C(=O)OC)c1ccccc1` (stereo unspecified) the value was greater than 100 µM.
With `O=[N+]([O-])c1ccccc1S(=O)(=O)c1ccccc1[N+](=O)[O-]`, the TGI in [2], in assay [3], in assay [4], in assay [9], in [5] and in assay [1] was greater than 100 µM throughout. The TGI in assay [7] is greater than 100 µM; in [8], 72.4 µM.
Turning to `COc1ccc(C2Cc3cc(OC)c(OC)c(OC)c3C2=O)cc1` (stereo unspecified), the TGI in assay [2], in assay [3], in assay [4], in [5] and in [7] was greater than 100 µM throughout.
`COC(=O)C1C2CC3C(OC(=O)C31)C2I` (stereo unspecified): the TGI in assay [2], in assay [4], in [5] and in [7] was greater than 100 µM throughout.
As for `C=CCOC1=C2CC[C@H](O)[C@@]2(C)CCC1=O`, the TGI in assay [2], in assay [3], in assay [4], in [9], in [5] and in assay [7] was greater than 100 µM throughout.
`CCC1(O)C(=O)OCc2c1cc1n(c2=O)Cc2c-1nc1ccccc1c2OC` (stereo unspecified): the TGI in assay [2] was 1.26 µM; in assay [3] it was greater than 77.9 µM; in assay [9] it was greater than 69.6 µM; in assay [5], 1.89 µM; in assay [7], greater than 100 µM.
As to `CCOC(=O)/C(=C/c1cc(OC)ccc1OC)CC(=O)O`, the TGI in assay [2], in [3], in assay [4], in [9], in assay [5] and in assay [6] was greater than 100 µM throughout. Besides, the figures for the TGI in assay [7] and in [8] were greater than 100 µM and greater than 56.7 µM, respectively.
In [1], `Oc1ccc(Cl)cc1Cc1cc(Cl)cc(Cc2cc(Cl)ccc2O)c1O` returned a TGI of 8.31 µM.
`CC(=O)NC(ON1C(=O)COc2ccccc21)C(Cl)(Cl)Cl` (stereo unspecified): the TGI in assay [4], in assay [9], in assay [7] and in assay [8] was greater than 100 µM throughout.
For the compound `NC1=NN(c2ccccc2)C(=O)C1C(=O)C(=O)NC1C2CC3CC(C2)CC1C3` (stereo unspecified), the TGI in assay [2], in [3], in [4], in assay [9], in [5] and in assay [6] was greater than 100 µM throughout. Further, the TGI in [7] was greater than 100 µM.
In the case of `Cc1ccc(NC(=O)C2C(=O)C(=O)N(c3ccc(C)cc3)C2=O)cc1` (stereo unspecified), the TGI in assay [2], in assay [3], in [4], in assay [9], in assay [5] and in assay [7] was greater than 100 µM throughout.
